Source: patent publication US12590062B2, “PD-1/PD-L1 inhibitors” (Gilead Sciences, Inc., priority 2017, dated 2026)
Read-outs that look alike come from different tables or passages of the source.

Biological target: T1, PD-1/PD-L1 interaction (Homo sapiens, UniProt Q9NZQ7)
T1 construct: expressed in transfected cells; host or cells: CHO cells (aAPC-PD-L1) co-cultured with Jurkat cells overexpressing PD-1 and an NFAT-luciferase reporter
Assay: PD-1/PD-L1 NFAT reporter co-culture assay
Assay type: cell-based
Protocol: PD-1/PD-L1 NEAT Reporter Assay:
Compounds were tested in afunctional co-culture reporter assay in which TCR-mediated NFAT activity is inhibited by the engagement of PD-1 with PD-L1. […] CHO cells expressing surface-bound anti-CD3 antibodies and PD-L1 (artificial antigen presenting cells, aAPC-PD-L1) were first seeded overnight. Jurkat cells overexpressing PD-1 and expressing a luciferase construct under NFAT control are diluted in RPMI assay medium (RPMI 1640 with 2% FBS), mixed with compounds, and immediately seeded on the monolayer of aAPC-PD-L1. The co-culture is then incubated for 6 hrs at 37° C. Luciferase activity is assessed by adding the ONE-Glo reagent and measuring luminescence with a plate reader. EC50 values are calculated from the fit of the dose-response curves to a four-parameter equation (Table 3).

[1] = Jurkat PD-1 NFAT-luciferase cells co-cultured with aAPC-PD-L1 CHO cells, 6 hrs at 37° C., read-out: EC50 NFAT Luciferase

T1 sequence (Q9NZQ7 19-290): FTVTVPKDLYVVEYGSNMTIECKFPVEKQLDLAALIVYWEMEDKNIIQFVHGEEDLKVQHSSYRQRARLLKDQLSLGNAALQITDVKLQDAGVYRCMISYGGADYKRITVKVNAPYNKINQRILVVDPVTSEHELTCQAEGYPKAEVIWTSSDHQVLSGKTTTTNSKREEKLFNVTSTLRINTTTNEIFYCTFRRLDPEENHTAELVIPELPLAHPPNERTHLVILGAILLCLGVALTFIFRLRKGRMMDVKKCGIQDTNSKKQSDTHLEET

EC50 [1] [µM]	SMILES	EC50 [µM]
5.03	COc1nc(OCc2cccc(-c3cccc(COc4nc(OC)c(C(CC(=O)O)N(C)C)cc4Cl)c3C)c2C)c(Cl)cc1C(CC(=O)O)N(C)C (mixture of isomers) [Example 236, 3,3′-((((2,2′-dimethyl-[1,1′-biphenyl]-3,3′-diyl)bis(methylene))bis(oxy))bis(5-chloro-2-methoxypyridine-6,3-diyl))bis(3-(dimethylamino)propanoic acid)]	
0.894	COc1nc(OCc2cccc(-c3cccc(COc4nc(OC)c(CN5CC(NC(C)=O)C5)cc4Cl)c3C)c2C)c(Cl)cc1CN1CC(NC(C)=O)C1 [Example 37, N,N′-((((((2,2′-dimethyl-[1,1′-biphenyl]-3,3′-diyl)bis(methylene))bis(oxy))bis(5-chloro-2-methoxypyridine-6,3-diyl))bis(methylene))bis(azetidine-1,3-diyl))diacetamide]	
0.062	COc1nc(OCc2cccc(-c3cccc(COc4nc(OC)c(CN[C@@](C)(CO)C(=O)O)cc4Cl)c3C)c2C)c(Cl)cc1CN[C@@](C)(CO)C(=O)O [Example 44, (2S,2′S)-2,2′-((((((2,2′-dimethyl-[1,1′-biphenyl]-3,3′-diyl)bis(methylene))bis(oxy))bis(5-chloro-2-methoxypyridine-6,3-diyl))bis(methylene))bis(azanediyl))bis(3-hydroxy-2-methylpropanoic acid)]	
0.087	COc1nc(OCc2cccc(-c3cccc(COc4nc(OC)c(CN[C@](C)(CO)C(=O)O)cc4Br)c3C)c2C)c(Br)cc1CN[C@](C)(CO)C(=O)O [Example 46, (2R,2′R)-2,2′-((((((2,2′-dimethyl-[1,1′-biphenyl]-3,3′-diyl)bis(methylene))bis(oxy))bis(5-bromo-2-methoxypyridine-6,3-diyl))bis(methylene))bis(azanediyl))bis(3-hydroxy-2-methylpropanoic acid)]	
0.076	COc1nc(OCc2cccc(-c3cccc(COc4nc(OC)c(CN[C@@H](CO)C(=O)O)cc4Cl)c3C)c2C)c(Cl)cc1CN[C@@H](CO)C(=O)O [Example 50, (2S,2′S)-2,2′-((((((2,2′-dimethyl-[1,1′-biphenyl]-3,3′-diyl)bis(methylene))bis(oxy))bis(5-chloro-2-methoxypyridine-6,3-diyl))bis(methylene))bis(azanediyl))bis(3-hydroxypropanoic acid)]	
0.105	COc1nc(OCc2cccc(-c3cccc(COc4nc(OC)c(CN[C@H](C(=O)O)[C@@H](C)O)cc4Cl)c3C)c2C)c(Cl)cc1CN[C@H](C(=O)O)[C@@H](C)O [Example 51, (2S,2′S,3R,3′R)-2,2′-((((((2,2′-dimethyl-[1,1′-biphenyl]-3,3′-diyl)bis(methylene))bis(oxy))bis(5-chloro-2-methoxypyridine-6,3-diyl))bis(methylene))bis(azanediyl))bis(3-hydroxybutanoic acid)]	
19.8	COc1nc(OCc2cccc(-c3cccc(COc4nc(OC)c(CNC(CO)c5nn[nH]n5)cc4Cl)c3C)c2C)c(Cl)cc1CNC(CO)c1nn[nH]n1 (stereo not shown) [Example 52, 2,2′-((((((2,2′-dimethyl-[1,1′-biphenyl]-3,3′-diyl)bis(methylene))bis(oxy))bis(5-chloro-2-methoxypyridine-6,3-diyl))bis(methylene))bis(azanediyl))bis(2-(2H-tetrazol-5-yl)ethan-1-ol)]	
0.722	Cc1c(COc2cc(OCc3cncc(C#N)c3)c(CN3CCCC[C@H]3C(=O)O)cc2Cl)cccc1-c1cccc(COc2cc(OCc3cncc(C#N)c3)c(CN3CCCC[C@H]3C(=O)O)cc2Cl)c1C [Example 53, (2S,2′S)-1,1′-(((((2,2′-dimethyl-[1,1′-biphenyl]-3,3′-diyl)bis(methylene))bis(oxy))bis(5-chloro-2-((5-cyanopyridin-3-yl)methoxy)-4,1-phenylene))bis(methylene))bis(piperidine-2-carboxylic acid)]	
≥ 50	CCOC(=O)C[C@H](O)CNCc1cc(C2CC2)c(OCc2cccc(-c3cccc(COc4nc(OC)c(CNC[C@@H](O)CC(=O)O)cc4C4CC4)c3C)c2C)nc1OC [Example 56, (S)-4-(((5-cyclopropyl-6-((3′-(((3-cyclopropyl-5-((((S)-4-ethoxy-2-hydroxy-4-oxobutyl)amino)methyl)-6-methoxypyridin-2-yl)oxy)methyl)-2,2′-dimethyl-[1,1′-biphenyl]-3-yl)methoxy)-2-methoxypyridin-3-yl)methyl)amino)-3-hydroxybutanoic acid]	
0.351	Cc1c(COc2cc(OCc3cccc(S(C)(=O)=O)c3)c(CN[C@@](C)(CO)C(=O)O)cc2Cl)cccc1-c1cccc(COc2cc(OCc3cccc(S(C)(=O)=O)c3)c(CN[C@@](C)(CO)C(=O)O)cc2Cl)c1C [Example 57, (2S,2′S)-2,2′-((((((2,2′-dimethyl-[1,1′-biphenyl]-3,3′-diyl)bis(methylene))bis(oxy))bis(5-chloro-2-((3-(methylsulfonyl)benzyl)oxy)-4,1-phenylene))bis(methylene))bis(azanediyl))bis(3-hydroxy-2-methylpropanoic acid)]	
19.5	COc1nc(OCc2cccc(-c3cccc(COc4nc(OC)c(CN5CCc6[nH]cnc6C5C(=O)O)cc4Cl)c3C)c2C)c(Cl)cc1CN1CCc2[nH]cnc2C1C(=O)O (stereo not shown) [Example 62, 5,5′-(((((2,2′-dimethyl-[1,1′-biphenyl]-3,3′-diyl)bis(methylene))bis(oxy))bis(5-chloro-2-methoxypyridine-6,3-diyl))bis(methylene))bis(4,5,6,7-tetrahydro-1H-imidazo[4,5-c]pyridine-4-carboxylic acid)]	
	COc1nc(OCc2cccc(-c3cccc(COc4nc(OC)c(CNCc5cc(O)no5)cc4Cl)c3C)c2C)c(Cl)cc1CNCc1cc(O)no1 [Example 63, 5,5′-(((((((2,2′-dimethyl-[1,1′-biphenyl]-3,3′-diyl)bis(methylene))bis(oxy))bis(5-chloro-2-methoxypyridine-6,3-diyl))bis(methylene))bis(azanediyl))bis(methylene))bis(isoxazol-3-ol)]	≥ 50
9.78	COc1nc(OCc2cccc(-c3cccc(COc4nc(OC)c(CN[C@](C)(CO)C(=O)O)cc4C4CC4)c3C)c2C)c(C2CC2)cc1CN[C@](C)(CO)C(=O)O [Example 64, (2R,2′R)-2,2′-((((((2,2′-dimethyl-[1,1′-biphenyl]-3,3′-diyl)bis(methylene))bis(oxy))bis(5-cyclopropyl-2-methoxypyridine-6,3-diyl))bis(methylene))bis(azanediyl))bis(3-hydroxy-2-methylpropanoic acid)]	
3.35	COc1nc(OCc2cccc(-c3cccc(COc4nc(OC)c(CN5CCC5C(N)=O)cc4Cl)c3C)c2C)c(Cl)cc1CN1CCC1C(N)=O (stereo not shown) [Example 65, 1,1′-(((((2,2′-dimethyl-[1,1′-biphenyl]-3,3′-diyl)bis(methylene))bis(oxy))bis(5-chloro-2-methoxypyridine-6,3-diyl))bis(methylene))bis(azetidine-2-carboxamide)]	
0.384	COc1nc(OCc2cccc(-c3cccc(COc4nc(OC)c(CN[C@@H]5CCC[C@H]5C(=O)O)cc4Cl)c3C)c2C)c(Cl)cc1CN[C@@H]1CCC[C@H]1C(=O)O [Example 75, (1R,1′R,2R,2′R)-2,2′-((((((2,2′-dimethyl-[1,1′-biphenyl]-3,3′-diyl)bis(methylene))bis(oxy))bis(5-chloro-2-methoxypyridine-6,3-diyl))bis(methylene))bis(azanediyl))bis(cyclopentane-1-carboxylic acid)]	
≥ 50	COc1nc(OCc2cccc(-c3cccc(COc4nc(OC)c(CNCC(C)(C)C(=O)O)cc4Cl)c3C)c2C)c(Cl)cc1CNCC(C)(C)C(=O)O [Example 77, 3,3′-((((((2,2′-dimethyl-[1,1′-biphenyl]-3,3′-diyl)bis(methylene))bis(oxy))bis(5-chloro-2-methoxypyridine-6,3-diyl))bis(methylene))bis(azanediyl))bis(2,2-dimethylpropanoic acid)]	
0.381	COc1nc(OCc2cccc(-c3cccc(COc4nc(OC)c(CN[C@@H]5CCC[C@@H]5C(=O)O)cc4Cl)c3C)c2C)c(Cl)cc1CN[C@@H]1CCC[C@@H]1C(=O)O [Example 79, (1S,1′S,2R,2′R)-2,2′-((((((2,2′-dimethyl-[1,1′-biphenyl]-3,3′-diyl)bis(methylene))bis(oxy))bis(5-chloro-2-methoxypyridine-6,3-diyl))bis(methylene))bis(azanediyl))bis(cyclopentane-1-carboxylicacid)]	
≥ 50	COc1nc(OCc2cccc(-c3cccc(COc4nc(OC)c(CN[C@H]5CCCC[C@@H]5C(=O)O)cc4Cl)c3C)c2C)c(Cl)cc1CN[C@H]1CCCC[C@@H]1C(=O)O [Example 80, (1S,1′S,2S,2′S)-2,2′-((((((2,2′-dimethyl-[1,1′-biphenyl]-3,3′-diyl)bis(methylene))bis(oxy))bis(5-chloro-2-methoxypyridine-6,3-diyl))bis(methylene))bis(azanediyl))bis(cyclohexane-1-carboxylic acid)]	
1.71	COc1nc(OCc2cccc(-c3cccc(COc4nc(OC)c(CNC(C)(C)CC(=O)O)cc4Cl)c3C)c2C)c(Cl)cc1CNC(C)(C)CC(=O)O [Example 82, 3,3′-((((((2,2′-dimethyl-[1,1′-biphenyl]-3,3′-diyl)bis(methylene))bis(oxy))bis(5-chloro-2-methoxypyridine-6,3-diyl))bis(methylene))bis(azanediyl))bis(3-methylbutanoic acid)]	
